pIC50: −log10 of the molar value. Counter-ions that a name gives are not always drawn. Like-named read-outs stand apart in the source and are kept apart here.
Legend:
IP-3 receptor = molecular target: T1, IP-3 receptor (Rattus norvegicus, UniProt P29994); experiment: IP-3 receptor antagonistic effect: inhibition of IP3 binding to its receptor in rat cerebellum membrane preparations; conditions: for pIC50: read-out: Average IC50; for IC50: read-out: IC 50 (μg/ml) Average ± SEM (n) (converted)
T1 construct: determined using rat cerebellum membrane preparations; from tissue; host or cells: rat cerebellum (microsomal membrane preparation)
Experimental: Glycosides of the present invention, depending on their chemical structure, inhibit the binding of inositol-1,4,5-trisphosphate (IP3) to its receptor in microsomal membrane preparations. As IP3 is a messenger molecule playing distinguished role in the activation of different cells, interfering with this function can explain the anti-asthmatic effect of these polysulfated glycosides.
The IP3 antagonist effect of the polysulfated glycosides were determined using rat cerebellum membrane preparations according to Worley et al. (JBC 262, 12132, 1987).

T1 sequence (P29994 whole entry): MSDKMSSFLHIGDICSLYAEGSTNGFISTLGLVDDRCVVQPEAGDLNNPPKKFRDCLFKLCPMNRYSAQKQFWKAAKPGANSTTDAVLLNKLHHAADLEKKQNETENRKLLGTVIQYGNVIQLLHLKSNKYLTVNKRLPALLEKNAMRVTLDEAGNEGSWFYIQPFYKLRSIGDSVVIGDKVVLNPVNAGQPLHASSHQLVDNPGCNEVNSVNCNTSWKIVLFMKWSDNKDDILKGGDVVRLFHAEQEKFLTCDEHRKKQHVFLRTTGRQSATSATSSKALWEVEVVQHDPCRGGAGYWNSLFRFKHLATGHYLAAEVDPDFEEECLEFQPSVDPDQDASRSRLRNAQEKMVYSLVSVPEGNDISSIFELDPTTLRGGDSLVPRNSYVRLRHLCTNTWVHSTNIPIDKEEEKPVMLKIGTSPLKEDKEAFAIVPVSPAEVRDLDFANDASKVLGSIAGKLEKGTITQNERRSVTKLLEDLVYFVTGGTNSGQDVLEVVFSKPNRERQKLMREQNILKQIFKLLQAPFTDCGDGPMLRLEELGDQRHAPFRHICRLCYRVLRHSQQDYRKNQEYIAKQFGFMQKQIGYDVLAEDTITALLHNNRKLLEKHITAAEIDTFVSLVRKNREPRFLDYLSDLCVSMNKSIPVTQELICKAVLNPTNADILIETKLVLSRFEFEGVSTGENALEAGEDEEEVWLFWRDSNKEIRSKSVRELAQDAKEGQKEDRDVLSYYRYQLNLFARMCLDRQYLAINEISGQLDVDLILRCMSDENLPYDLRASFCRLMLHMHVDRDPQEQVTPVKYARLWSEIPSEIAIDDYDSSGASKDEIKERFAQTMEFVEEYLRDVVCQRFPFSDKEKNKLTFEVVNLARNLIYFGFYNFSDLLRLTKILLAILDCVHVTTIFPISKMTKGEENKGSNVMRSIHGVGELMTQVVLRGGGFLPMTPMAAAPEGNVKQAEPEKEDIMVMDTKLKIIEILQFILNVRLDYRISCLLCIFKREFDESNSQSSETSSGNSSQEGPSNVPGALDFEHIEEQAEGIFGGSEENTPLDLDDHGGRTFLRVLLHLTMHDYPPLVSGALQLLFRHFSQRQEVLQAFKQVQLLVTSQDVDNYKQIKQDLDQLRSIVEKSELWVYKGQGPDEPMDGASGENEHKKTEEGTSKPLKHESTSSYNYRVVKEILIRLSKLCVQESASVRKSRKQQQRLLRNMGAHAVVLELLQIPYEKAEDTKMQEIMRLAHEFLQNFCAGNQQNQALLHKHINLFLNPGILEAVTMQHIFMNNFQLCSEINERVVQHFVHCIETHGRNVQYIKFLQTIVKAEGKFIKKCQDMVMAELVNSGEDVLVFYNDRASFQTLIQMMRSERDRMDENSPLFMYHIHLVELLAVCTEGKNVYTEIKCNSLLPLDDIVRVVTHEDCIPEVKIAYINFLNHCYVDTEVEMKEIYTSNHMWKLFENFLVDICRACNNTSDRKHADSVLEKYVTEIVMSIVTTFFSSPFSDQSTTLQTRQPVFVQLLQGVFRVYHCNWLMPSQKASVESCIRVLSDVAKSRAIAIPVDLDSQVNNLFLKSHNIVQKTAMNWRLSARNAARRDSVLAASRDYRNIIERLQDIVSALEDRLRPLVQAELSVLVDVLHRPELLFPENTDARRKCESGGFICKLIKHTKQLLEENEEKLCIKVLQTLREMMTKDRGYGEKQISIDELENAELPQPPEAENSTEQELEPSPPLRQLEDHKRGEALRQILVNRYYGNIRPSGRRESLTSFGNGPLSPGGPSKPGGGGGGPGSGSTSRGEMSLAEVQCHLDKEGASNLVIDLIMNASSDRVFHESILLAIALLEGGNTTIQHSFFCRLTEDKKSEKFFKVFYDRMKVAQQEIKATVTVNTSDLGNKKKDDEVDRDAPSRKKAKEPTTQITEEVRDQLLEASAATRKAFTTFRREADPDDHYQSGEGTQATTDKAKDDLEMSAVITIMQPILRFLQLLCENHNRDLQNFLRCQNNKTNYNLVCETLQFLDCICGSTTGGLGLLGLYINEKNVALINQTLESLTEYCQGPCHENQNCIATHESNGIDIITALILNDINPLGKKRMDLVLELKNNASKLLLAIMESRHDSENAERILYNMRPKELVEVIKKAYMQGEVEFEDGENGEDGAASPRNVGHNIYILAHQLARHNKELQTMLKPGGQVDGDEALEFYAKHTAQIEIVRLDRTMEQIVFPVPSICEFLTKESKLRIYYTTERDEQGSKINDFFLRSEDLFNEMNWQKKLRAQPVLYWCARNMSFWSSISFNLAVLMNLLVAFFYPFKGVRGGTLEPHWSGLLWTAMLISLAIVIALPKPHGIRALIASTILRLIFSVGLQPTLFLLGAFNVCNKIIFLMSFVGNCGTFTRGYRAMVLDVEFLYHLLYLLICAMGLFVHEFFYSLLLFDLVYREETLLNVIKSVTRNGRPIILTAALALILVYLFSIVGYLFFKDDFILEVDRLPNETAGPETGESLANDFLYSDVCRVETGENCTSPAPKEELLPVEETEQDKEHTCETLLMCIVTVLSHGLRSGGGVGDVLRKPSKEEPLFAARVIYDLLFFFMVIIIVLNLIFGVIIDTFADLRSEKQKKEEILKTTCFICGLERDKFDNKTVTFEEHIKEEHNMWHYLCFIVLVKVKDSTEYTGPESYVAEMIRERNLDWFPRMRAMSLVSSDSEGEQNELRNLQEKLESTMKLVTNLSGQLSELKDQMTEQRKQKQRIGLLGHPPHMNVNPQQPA

Compound | melting point [°C] | pIC50 (IP-3 receptor) | IC50 (IP-3 receptor) [nM]
O=S(=O)(O)OC[C@H](OS(=O)(=O)O)[C@@H](O[C@@H]1O[C@H](COS(=O)(=O)O)[C@@H](OS(=O)(=O)O)[C@H](OS(=O)(=O)O)[C@H]1OS(=O)(=O)O)[C@H](OS(=O)(=O)O)[C@@H](COS(=O)(=O)O)OS(=O)(=O)O (as salt: potassium) [Example 4, 1,2,4,5,6-penta-O-sulfato-3-O-(2,3,4,6-tetra-β-sulfato-β-D-glucopyranosyl)-D-glucitol nona potassium salt] | > 220 |  | 
O=S(=O)(O)OC[C@H]1O[C@@H](OC[C@@H](OS(=O)(=O)O)[C@@H](OS(=O)(=O)O)[C@H](OS(=O)(=O)O)[C@@H](COS(=O)(=O)O)OS(=O)(=O)O)[C@H](OS(=O)(=O)O)[C@@H](OS(=O)(=O)O)[C@@H]1OS(=O)(=O)O [Example 1, 2,3,4,5,6-penta-O-sulfato-1-O-(2,3,4,6-tetra-O-sulfato-β-D-glucopyranosyl)-D-mannitol nona potassium salt] |  | 7.00 | 131
O=S(=O)(O)OC[C@H]1O[C@@H](OC[C@H](OS(=O)(=O)O)[C@@H](OS(=O)(=O)O)[C@H](OS(=O)(=O)O)[C@@H](COS(=O)(=O)O)OS(=O)(=O)O)[C@H](OS(=O)(=O)O)[C@@H](OS(=O)(=O)O)[C@@H]1OS(=O)(=O)O [Example 3, 2,3,4,5,6-penta-O-sulfato-1-O-(2,3,4,6-tetra-O-sulfato-β-D-glucopyranosyl)-D-glucitol nona potassium salt] |  | 6.39 | 535
O=S(=O)(O)OC[C@H](OS(=O)(=O)O)[C@@H](OS(=O)(=O)O)[C@H](O[C@H]1O[C@H](COS(=O)(=O)O)[C@@H](OS(=O)(=O)O)[C@H](OS(=O)(=O)O)[C@H]1OS(=O)(=O)O)[C@@H](COS(=O)(=O)O)OS(=O)(=O)O [Example 5, 1,2,3,5,6-penta-O-sulfato-4-O-(2,3,4,6-tetra-O-sulfato-α-D-glucopyranosyl)-D-glucitol nona potassium salt] |  | 6.58 | 347
O=S(=O)(O)OCC(OS(=O)(=O)O)C(OC1OC(COS(=O)(=O)O)C(OS(=O)(=O)O)C(OS(=O)(=O)O)C1OS(=O)(=O)O)C(OS(=O)(=O)O)C(COS(=O)(=O)O)OS(=O)(=O)O [Example 6, 1,2,3,5,6-penta-O-sulfato-4-O-(2,3,4,6-tetra-β-sulfato-β-D-glucopyranosyl)-D-glucitol nona potassium salt] |  | 6.59 | 338
O=S(=O)(O)OC[C@H](OS(=O)(=O)O)[C@@H](OS(=O)(=O)O)[C@H](O[C@@H]1O[C@H](COS(=O)(=O)O)[C@H](OS(=O)(=O)O)[C@H](OS(=O)(=O)O)[C@H]1OS(=O)(=O)O)[C@@H](COS(=O)(=O)O)OS(=O)(=O)O [Example 7, 1,2,3,5,6-penta-O-sulfato-4-O-(2,3,4,6-tetra-O-sulfato-β-D-galactopyranosyl)-D-glucitol nona potassium salt] |  | 6.59 | 338
O=S(=O)(O)OC[C@H]1O[C@@H](OC[C@H](OS(=O)(=O)O)[C@@H](O[C@@H]2O[C@H](COS(=O)(=O)O)[C@@H](OS(=O)(=O)O)[C@H](OS(=O)(=O)O)[C@H]2OS(=O)(=O)O)[C@H](OS(=O)(=O)O)[C@@H](COS(=O)(=O)O)OS(=O)(=O)O)[C@H](OS(=O)(=O)O)[C@@H](OS(=O)(=O)O)[C@@H]1OS(=O)(=O)O [Example 8, 2,4,5,6-tetra-O-sulfato-1,3-bis-O-(2,3,4,6-tetra-O-sulfato-β-D-glucopyranosyl)-D-glucitol dodeca potassium salt] |  | 6.10 | 1050
O=S(=O)(O)OC[C@H]1O[C@@H](OC[C@@H](OS(=O)(=O)O)[C@@H](OS(=O)(=O)O)[C@H](OS(=O)(=O)O)[C@@H](CO[C@@H]2O[C@H](COS(=O)(=O)O)[C@@H](OS(=O)(=O)O)[C@H](OS(=O)(=O)O)[C@H]2OS(=O)(=O)O)OS(=O)(=O)O)[C@H](OS(=O)(=O)O)[C@@H](OS(=O)(=O)O)[C@@H]1OS(=O)(=O)O [Example 9, 2,3,4,5-tetra-O-sulfato-1,6-bis-O-(2,3,4,6-tetra-O-sulfato-β-D-glucopyranosyl)-D-mannitol dodeca potassium salt] |  | 6.20 | 832
CO[C@@H]([C@H](OC)[C@@H](COS(=O)(=O)O)OS(=O)(=O)O)[C@@H](CO[C@@H]1O[C@H](CO[C@@H]2O[C@H](COS(=O)(=O)O)[C@@H](OS(=O)(=O)O)[C@H](OS(=O)(=O)O)[C@H]2OS(=O)(=O)O)[C@@H](OS(=O)(=O)O)[C@H](OS(=O)(=O)O)[C@H]1OS(=O)(=O)O)OS(=O)(=O)O [Example 14, 3,4-di-O-methyl-2,5,6-tri-O-sulfato-1-O-(2,3,4,2′,3′,4′,6′-hepta-O-sulfato-β-gentiobiopyranosyl)-D-mannitol deca potassium salt] |  | 5.22 | 7830
O=S(=O)(O)OC[C@@H](OS(=O)(=O)O)[C@@H](OS(=O)(=O)O)[C@H](OS(=O)(=O)O)[C@@H](CO[C@H]1OC[C@@H](OS(=O)(=O)O)[C@@H](OS(=O)(=O)O)[C@@H]1OS(=O)(=O)O)OS(=O)(=O)O [Example 16, 2,3,4,5,6-penta-O-sulfato-1-O-(2,3,4-tri-O-sulfato-α-D-arabinopyranosyl)-D-mannitol octa potassium salt] |  | 6.15 | 2020

The remaining lines, values ahead:

melting point [°C] | pIC50 (IP-3 receptor) | IC50 (IP-3 receptor) [nM] | Compound
> 220 |  |  | O=S(=O)(O)OC[C@H](OS(=O)(=O)O)[C@@H](OS(=O)(=O)O)[C@H](O[C@H]1O[C@H](COS(=O)(=O)O)[C@@H](OS(=O)(=O)O)[C@H](OS(=O)(=O)O)[C@H]1OS(=O)(=O)O)[C@@H](COS(=O)(=O)O)OS(=O)(=O)O (as salt: potassium) [Example 5, 1,2,3,5,6-penta-O-sulfato-4-O-(2,3,4,6-tetra-O-sulfato-α-D-glucopyranosyl)-D-glucitol nona potassium salt]
> 220 |  |  | O=S(=O)(O)OCC(OS(=O)(=O)O)C(OC1OC(COS(=O)(=O)O)C(OS(=O)(=O)O)C(OS(=O)(=O)O)C1OS(=O)(=O)O)C(OS(=O)(=O)O)C(COS(=O)(=O)O)OS(=O)(=O)O (as salt: potassium) [Example 6, 1,2,3,5,6-penta-O-sulfato-4-O-(2,3,4,6-tetra-β-sulfato-β-D-glucopyranosyl)-D-glucitol nona potassium salt]
> 220 |  |  | O=S(=O)(O)OC[C@H](OS(=O)(=O)O)[C@@H](OS(=O)(=O)O)[C@H](O[C@@H]1O[C@H](COS(=O)(=O)O)[C@H](OS(=O)(=O)O)[C@H](OS(=O)(=O)O)[C@H]1OS(=O)(=O)O)[C@@H](COS(=O)(=O)O)OS(=O)(=O)O (as salt: potassium) [Example 7, 1,2,3,5,6-penta-O-sulfato-4-O-(2,3,4,6-tetra-O-sulfato-β-D-galactopyranosyl)-D-glucitol nona potassium salt]
 | 5.85 | 1870 | O=S(=O)(O)OC[C@H](OS(=O)(=O)O)[C@@H](OS(=O)(=O)O)[C@H](OS(=O)(=O)O)[C@@H](CO[C@@H]1O[C@H](COS(=O)(=O)O)[C@@H](OS(=O)(=O)O)[C@H](OS(=O)(=O)O)[C@H]1OS(=O)(=O)O)OS(=O)(=O)O [Example 2, 1,2,3,4,5-penta-O-sulfato-6-O-(2,3,4,6-tetra-O-sulfato-β-D-glucopyranosyl)-D-glucitol nona potassium salt]
 | 6.55 | 383 | O=S(=O)(O)OCC1OC(OCC2OC(OCC(OS(=O)(=O)O)C(OS(=O)(=O)O)C(OS(=O)(=O)O)C(COC3OC(COC4OC(COS(=O)(=O)O)C(OS(=O)(=O)O)C(OS(=O)(=O)O)C4OS(=O)(=O)O)C(OS(=O)(=O)O)C(OS(=O)(=O)O)C3OS(=O)(=O)O)OS(=O)(=O)O)C(OS(=O)(=O)O)C(OS(=O)(=O)O)C2OS(=O)(=O)O)C(OS(=O)(=O)O)C(OS(=O)(=O)O)C1OS(=O)(=O)O [Example 10, 2,3,4,5-tetra-O-sulfato-1,6-bis-O-(2,3,4,2′,3′,4′,6′-hepta-O-sulfato-β-gentiobiopyranosyl)-D-mannitol octadeca potassium salt]
